How the values were obtained:
3T3-L1 adipocytes = experiment: Fatty acid oxidation (O2 consumption response to palmitate) in adipocytes; type: cell-based; settings: FIG. 8, % change from control
Procedure: (§1) Cell Culture: C2C12 and 3T3-L1 preadipocytes (American Type Culture Collection) were plated at a density of 8000 cells/cm^2 (10 cm^2 dish) and grown in Dulbecco's modified eagle's medium (DMEM) containing 10% fetal bovine serum (FBS), and antibiotics (growth medium) at 37° C. in 5% CO2. Confluent 3T3-L1 preadipocytes were induced to differentiate with a standard differentiation medium consisting of DMEM medium supplemented with 10% FBS, 250 nM dexamethasone, 0.5 mM 3-Isobutyl-1-methylxanthine (IBMX) and 1% penicillin-streptomycin. Preadipocytes were maintained in this differentiation medium for 3 days and subsequently cultured in growth medium. Cultures were re-fed every 2-3 days to allow >90% cells to reach fully differentiation before conducting chemical treatment. […]
Fatty acid oxidation: Cellular oxygen consumption was measured using a Seahorse Bioscience XF24 analyzer (Seahorse Bioscience, Billerica, Mass.) in 24-well plates at 37° C., as described by Feige et al (1) with slight modifications. […] Data for each sample were normalized to the pre-palmitate injection baseline for that sample and expressed as % change from that baseline. […] The area under of the curve of O2 consumption change from baseline for each sample was then calculated and used for subsequent analysis.

[1] = Circulating level achieved by dietary dosing; type: in vivo, human
Excerpt: In some embodiments, the dosing of leucine, any metabolites of leucine, and/or vitamin B6 can be designed to achieve a specified physiological concentration or circulating level of leucine, metabolites of leucine and/or vitamin B6. The physiological concentration can be a circulating level as measured in the blood stream of a subject. The subject can be a human or an animal. A selected dosing can be altered based on the characteristics of the subject, such as weight, rate of energy metabolism, genetics, ethnicity, height, or any other characteristic. The amount of leucine in a unit dose can be such that the circulating level of leucine in a subject is about or greater than about 0.25 mM, 0.5 mM, 0.75 mM, or 1 mM. A dosing of about 1,125 mg leucine can achieve a circulating level of leucine in a subject that is about 0.5 mM. A dosing of about 300 mg leucine can achieve a circulating level of leucine in a subject that is about 0.25 mM. A dosing of about 15 mg of vitamin B6 can achieve a circulating level of vitamin B6 that is about 100 nM. A dosing of about 7.5 mg of vitamin B6 can achieve a circulating level of vitamin B6 that is about 50 nM. The amount of vitamin B6 in a unit dose can be such that the circulating level of vitamin B6 in a subject is about or greater than about 10, 25, 50, 100, 150, or 200 nM. […]

C2C12 myotubes = experiment: Glucose utilization (extracellular acidification) in myotubes; type: cell-based; settings: FIG. 9
Procedure: as §1
Glucose Utilization: In the absence of a fatty acid source and oxidative metabolism, glycolysis and subsequent lactate production results in extracellular acidification, which was also measured using a Seahorse Bioscience XF24 analyzer. […] Data for each sample were normalized to the pre-glucose injection baseline for that sample and expressed as % change from that baseline. The area under of the curve of extracellular acidification change from baseline for each sample was the calculated and used for subsequent analysis.

CC(C)C[C@H](N)C(=O)O [Leucine, leucine]
increase in fatty acid oxidation (3T3-L1 adipocytes): 181% | circulating level of leucine ([1]; dosing of about 300 mg leucine): about 0.25 mM | circulating level of leucine ([1]; dosing of about 1,125 mg leucine): about 0.5 mM | increase in glucose utilization (C2C12 myotubes): no independent significant effect
